Laboratory results: patent US6677466B1, “Method for stabilizing hydrogen peroxide” (DSM Fine Chemicals Austria NFG GmbH & Co KG, priority 1999, dated 2004)

Assay: O2 evolution from [Mn2O3{Me3tacn}2](PF6)2-catalysed decomposition of H2O2 with stabilizer
Type: physicochemical
Description: A 50% strength aqueous solution of H2O2 (304 mg; 4.46 mmol) was added to 454 mg (4.46 mmol) of methyl pyruvate and to 535 mg (4.46 mmol) of glyoxylic methyl ester methyl hemiacetal, respectively. In the case of methyl pyruvate, a marked evolution of heat was discovered during the addition. After one hour, the H2O2/α-keto ester mixture was mixed with 1 ml of solvent and added to a suspension of 1.0 mg of [Mn2O3{Me3tacn}2](PF6)2 catalyst in 4 ml of solvent. The suspension was introduced into a 50 ml flask which was maintained at room temperature in a water bath. As a result of this addition, in cases where undissolved catalyst was still present, the catalyst dissolved completely.
As a comparison, a suspension of 1.0 mg of [Mn2O3{Me3tacn}2](PF6)2 catalyst in 4 ml of solvent was combined with a 50% strength aqueous solution of H2O2 (304 mg; 4.46 mmol) and 1 ml of solvent without stabilizer.
The amount of oxygen which was evolved from the decomposition of the hydrogen peroxide was determined as a function of time using a Brooks meter, which permitted measurement of the gas flow and the total amount of evolved gas.

For `COC(=O)C(C)=O` [methyl pyruvate], the “O2 evolution V(O2) (Vmax(O2)*100%)” value (solv. acetic acid, t 1 min) was 0%, the “O2 evolution V(O2) (Vmax(O2)*100%)” value (solv. acetic acid, t 4 min) was 3% and the “O2 evolution V(O2) (Vmax(O2)*100%)” value (solv. acetic acid, t 5 min) was 8%. For the same molecule, the “O2 evolution V(O2) (Vmax(O2)*100%)” value (solv. acetic acid, t 10 min) was 20%, the “O2 evolution V(O2) (Vmax(O2)*100%)” value (solv. acetic acid, t 15 min) was 24% and the “O2 evolution V(O2) (Vmax(O2)*100%)” value (solv. acetic acid, t 20 min) was 24%. The “O2 evolution V(O2) (Vmax(O2)*100%)” value (solv. acetic acid, t 25 min) was 24%, the “O2 evolution V(O2) (Vmax(O2)*100%)” value (solv. acetic acid, t 30 min) was 24% and the “O2 evolution V(O2) (Vmax(O2)*100%)” value (solv. acetic acid, t 35 min) was 24%. The “O2 evolution V(O2) (Vmax(O2)*100%)” value (solv. acetic acid, t 50 min) was 24%, the “O2 evolution V(O2) (Vmax(O2)*100%)” value (solv. acetic acid, t 60 min) was 24% and the “O2 evolution V(O2) (Vmax(O2)*100%)” value (solv. acetic acid, t 70 min) was 24%. The “O2 evolution V(O2) (Vmax(O2)*100%)” value (solv. acetic acid, t 80 min) was 24%, the “O2 evolution V(O2) (Vmax(O2)*100%)” value (solv. acetone, t 1 min) was 0% and the “O2 evolution V(O2) (Vmax(O2)*100%)” value (solv. acetone, t 4 min) was 0%. The “O2 evolution V(O2) (Vmax(O2)*100%)” value (solv. acetone, t 5 min) was 0%, the “O2 evolution V(O2) (Vmax(O2)*100%)” value (solv. acetone, t 10 min) was 0% and the “O2 evolution V(O2) (Vmax(O2)*100%)” value (solv. acetone, t 15 min) was 0%. The “O2 evolution V(O2) (Vmax(O2)*100%)” value (solv. acetone, t 20 min) was 0%, the “O2 evolution V(O2) (Vmax(O2)*100%)” value (solv. acetone, t 25 min) was 0% and the “O2 evolution V(O2) (Vmax(O2)*100%)” value (solv. acetone, t 30 min) was 0%. For the same molecule, the “O2 evolution V(O2) (Vmax(O2)*100%)” value (solv. acetone, t 35 min) was 0%, the “O2 evolution V(O2) (Vmax(O2)*100%)” value (solv. acetone, t 50 min) was 6% and the “O2 evolution V(O2) (Vmax(O2)*100%)” value (solv. acetone, t 60 min) was 12%. For the same molecule, the “O2 evolution V(O2) (Vmax(O2)*100%)” value (solv. acetone, t 70 min) was 20%, the “O2 evolution V(O2) (Vmax(O2)*100%)” value (solv. acetone, t 80 min) was 28% and the “O2 evolution V(O2) (Vmax(O2)*100%)” value (solv. acetonitrile, t 1 min) was 0%. For the same molecule, the “O2 evolution V(O2) (Vmax(O2)*100%)” value (solv. acetonitrile, t 4 min) was 0%, the “O2 evolution V(O2) (Vmax(O2)*100%)” value (solv. acetonitrile, t 5 min) was 0% and the “O2 evolution V(O2) (Vmax(O2)*100%)” value (solv. acetonitrile, t 10 min) was 3%. The “O2 evolution V(O2) (Vmax(O2)*100%)” value (solv. acetonitrile, t 15 min) was 9%, the “O2 evolution V(O2) (Vmax(O2)*100%)” value (solv. acetonitrile, t 20 min) was 18% and the “O2 evolution V(O2) (Vmax(O2)*100%)” value (solv. acetonitrile, t 25 min) was 25%. The “O2 evolution V(O2) (Vmax(O2)*100%)” value (solv. acetonitrile, t 30 min) was 30%, the “O2 evolution V(O2) (Vmax(O2)*100%)” value (solv. acetonitrile, t 35 min) was 35% and the “O2 evolution V(O2) (Vmax(O2)*100%)” value (solv. acetonitrile, t 50 min) was 38%. The “O2 evolution V(O2) (Vmax(O2)*100%)” value (solv. acetonitrile, t 60 min) was 38%, the “O2 evolution V(O2) (Vmax(O2)*100%)” value (solv. acetonitrile, t 70 min) was 38% and the “O2 evolution V(O2) (Vmax(O2)*100%)” value (solv. acetonitrile, t 80 min) was 38%. The “O2 evolution V(O2) (Vmax(O2)*100%)” value (solv. ethyl acetate, t 1 min) was 0%, the “O2 evolution V(O2) (Vmax(O2)*100%)” value (solv. ethyl acetate, t 4 min) was 0% and the “O2 evolution V(O2) (Vmax(O2)*100%)” value (solv. ethyl acetate, t 5 min) was 0%. For the same molecule, the “O2 evolution V(O2) (Vmax(O2)*100%)” value (solv. ethyl acetate, t 10 min) was 6%, the “O2 evolution V(O2) (Vmax(O2)*100%)” value (solv. ethyl acetate, t 15 min) was 9% and the “O2 evolution V(O2) (Vmax(O2)*100%)” value (solv. ethyl acetate, t 20 min) was 9%. For the same molecule, the “O2 evolution V(O2) (Vmax(O2)*100%)” value (solv. ethyl acetate, t 25 min) was 9%, the “O2 evolution V(O2) (Vmax(O2)*100%)” value (solv. ethyl acetate, t 30 min) was 9% and the “O2 evolution V(O2) (Vmax(O2)*100%)” value (solv. ethyl acetate, t 35 min) was 9%. The “O2 evolution V(O2) (Vmax(O2)*100%)” value (solv. ethyl acetate, t 50 min) was 9%, the “O2 evolution V(O2) (Vmax(O2)*100%)” value (solv. ethyl acetate, t 60 min) was 9% and the “O2 evolution V(O2) (Vmax(O2)*100%)” value (solv. ethyl acetate, t 70 min) was 9%. The “O2 evolution V(O2) (Vmax(O2)*100%)” value (solv. ethyl acetate, t 80 min) was 9%, the “O2 evolution V(O2) (Vmax(O2)*100%)” value (solv. methanol, t 1 min) was 1% and the “O2 evolution V(O2) (Vmax(O2)*100%)” value (solv. methanol, t 4 min) was 2%. For the same molecule, the “O2 evolution V(O2) (Vmax(O2)*100%)” value (solv. methanol, t 5 min) was 2%, the “O2 evolution V(O2) (Vmax(O2)*100%)” value (solv. methanol, t 10 min) was 2% and the “O2 evolution V(O2) (Vmax(O2)*100%)” value (solv. methanol, t 15 min) was 2%. For the same molecule, the “O2 evolution V(O2) (Vmax(O2)*100%)” value (solv. methanol, t 20 min) was 2%, the “O2 evolution V(O2) (Vmax(O2)*100%)” value (solv. methanol, t 25 min) was 2% and the “O2 evolution V(O2) (Vmax(O2)*100%)” value (solv. methanol, t 30 min) was 2%. For the same molecule, the “O2 evolution V(O2) (Vmax(O2)*100%)” value (solv. methanol, t 35 min) was 2%, the “O2 evolution V(O2) (Vmax(O2)*100%)” value (solv. methanol, t 50 min) was 2% and the “O2 evolution V(O2) (Vmax(O2)*100%)” value (solv. methanol, t 60 min) was 2%. The “O2 evolution V(O2) (Vmax(O2)*100%)” value (solv. methanol, t 70 min) was 2%, the “O2 evolution V(O2) (Vmax(O2)*100%)” value (solv. methanol, t 80 min) was 2% and the “O2 evolution V(O2) (Vmax(O2)*100%)” value (solv. t-butanol, t 1 min) was 0%. The “O2 evolution V(O2) (Vmax(O2)*100%)” value (solv. t-butanol, t 4 min) was 0%, the “O2 evolution V(O2) (Vmax(O2)*100%)” value (solv. t-butanol, t 5 min) was 0% and the “O2 evolution V(O2) (Vmax(O2)*100%)” value (solv. t-butanol, t 10 min) was 0%. For the same molecule, the “O2 evolution V(O2) (Vmax(O2)*100%)” value (solv. t-butanol, t 15 min) was 0%, the “O2 evolution V(O2) (Vmax(O2)*100%)” value (solv. t-butanol, t 20 min) was 0% and the “O2 evolution V(O2) (Vmax(O2)*100%)” value (solv. t-butanol, t 25 min) was 0%. The “O2 evolution V(O2) (Vmax(O2)*100%)” value (solv. t-butanol, t 30 min) was 0%, the “O2 evolution V(O2) (Vmax(O2)*100%)” value (solv. t-butanol, t 35 min) was 0% and the “O2 evolution V(O2) (Vmax(O2)*100%)” value (solv. t-butanol, t 50 min) was 0%. For the same molecule, the “O2 evolution V(O2) (Vmax(O2)*100%)” value (solv. t-butanol, t 60 min) was 0%, the “O2 evolution V(O2) (Vmax(O2)*100%)” value (solv. t-butanol, t 70 min) was 0% and the “O2 evolution V(O2) (Vmax(O2)*100%)” value (solv. t-butanol, t 80 min) was 0%.
